The values that follow come from patent US6444694B1, “Styryl benzimidazole derivatives” (Wyeth, priority 1995, dated 2002).

Counter-ions that a name gives are not always drawn. Like-named read-outs stand apart in the source and are kept apart here.

A short description of data set [1]: Cytotoxicity, commercial modification of the MTT assay. In kind it is cell-based, porcine. The arrangement: dose or concentration left out as unconfirmed. The following applies: pig. The method, then:
To distinguish cytotoxicity from the ability of a compound to prevent proliferation, the test compounds were examined using a commercial modification of the MTT assay. Briefly, cells were grown in 24 well plates to 70-80% confluency. The cells were serum deprived for 24-48 hours prior to initiation of the experimental protocol. To insure that the MTT assay monitored toxicity rather than proliferation, the cells were incubated with […] test compound in fresh medium without serum for 24 hours at 37° C. in a humidified CO2 incubator. Upon completion of the compound treatment, MTT indicator dye was added for 4 hours a 37° C. Cells were then solubilized and aliquots from each will were transferred to a 96-well plate for analysis. Absorbance at 570 nm wavelength with a reference wavelength of 630 nm was recorded using an ELISA plate reader. Results are reported as percent viable using no drug (100% viable) and pre-solubilization (0% viable) standards.

Data set [2] relates to isolated porcine aortic smooth muscle cells. As to the kind of experiment: Porcine aortic smooth muscle cell antiproliferation (3H thymidine incorporation). It counts as cell-based. The following applies: 24-36 hours. The protocol: The ability of the compounds of the present invention to inhibit smooth muscle cell proliferation was established using isolated porcine aortic smooth muscle cells in a modification of the procedure of Castellot et al. J. Biol. Chem 257(19) 11256 (1982), as follows:
Fresh porcine aortas, scrupulously cleansed of fatty tissue, are rinsed in sterile phosphate-buffered saline with 2% antibiotic-antimycotic (100×) liquid (10,000 units of penicillin (base), 10,000 μg of streptomycin (base), and 25 μg of amphotericin B/mL utilizing penicillin G (sodium salt), streptomycin sulfate, and amphotericin B as Fungizone® in 0.85% saline, available from Gibco Laboratories, Grand Island Biological Co., Grand Island, N.Y.). The tissue is then digested in 10-15 mL of an enzyme solution containing collagenase type I, 165 U/mL; elastase type III, 15 U/mL; BSA, 2 mg/mL; and soybean trypsin inhibitor, 0.375 mg/mL, followed by incubation at 37° C. under 5% CO2 atmosphere for 10 to 15 minutes. After this treatment, the outer surface adventitia is removed by peeling with a forceps. The aorta is then longitudinally cut and laid open and the endothelial layer is removed by scraping.
The medial layer of cells is rinsed in the enzyme solution, and placed in a new 100 mm dish with 10 mL of enzyme solution. The medial layer of cells is minced using a fine pair of scissors and digested for 2-3 hours at 37° C. in 30 mL of fresh enzyme solution. After digestion, the medial tissue is homogenized using a sterile Pasteur pipette with a fire polished tip or an Eppendorf pipetter with a 200-1000 μL sterile pipette tip. The suspension is then centrifuged for 10 minutes at 8000 rpm and the pellet is suspended in 4-6 mL of fresh enzyme solution and plated onto 4-6 100 mm flasks with vented caps. The cells are then allowed to grow to confluence and split using 0.25% trypsin. The cells are evaluated for purity and overall quality using antibody to SMC actin.
The cells are assayed in early passage (generally passage 3-7) at sub-confluent conditions. Cultures are grown in 16 mm (24 well) multi-well culture dishes in media 199 supplemented with 10% fetal bovine serum and 2% antibiotic/antimycotic. At subconfluence, the cells are placed in a defined serum free, lymphocyte medium (AIM-V; Gibco) for 24-48 hours prior to initiating the experimental protocol.
The standard test procedure is initiated by addition of the test compound, ^3H thymidine and serum or a specific growth factor to the serum deprived synchronized cells. Growth factor and serum stimulations are optimized for each cell type. The test compounds are added to each well at 50 fold dilution (20 μL/well) and the plates are incubated for 24-36 hours at 37° C. in 5% CO2 atmosphere. Test compounds are dissolved in 50% ethanol and assayed at 1, 10, and 100 μM. As a control, RG 50872 (Bilder, G. A.; et al., Am. J. Cell Physiol., 1991; 260: C721) is routinely assayed under the conditions of each cell preparation at a concentration of 5 μM.
At the completion of the experiment, the plates are placed on ice, washed three times with ice cold PBS and incubated in ice cold 10% trichloroacetic acid (TCA) for 30 minutes to remove acid soluble proteins. Each solution is transferred to a scintillation vial containing 0.4N HCl (500 μL/vial to neutralize NaOH) and each well is rinsed two times with water […].
Data is quantitated by subjecting the vials to a scintillation counter, in triplicate, for both control and experimental samples. Control (100%) data is obtained from maximally stimulated cells, as the result of growth factor or serum stimulation. Experimental data is obtained from cells maximally stimulated with growth factor or serum and treated with a test compound. (The platelet-derived growth factor used in the assay was human recombinant PDGF-AB purchased from Upstate Biotechnology Inc., Lake Placid, N.Y.). Data is expressed as a percent of control from which IC50s are determined.
In general terms: Dividing cells build labelled thymidine or BrdU into new DNA.

Setting [3] is: Sus scrofa, serum-stimulated, serum deprived synchronized cells, read-out: Porcine Smooth Muscle Cell Antiproliferation IC50 or % Inhibition at x Concentration, Serum.
Setting [4] is: Sus scrofa, stimulated with human recombinant PDGF-AB, read-out: Porcine Smooth Muscle Cell Antiproliferation IC50 or % Inhibition at x Concentration, PDGF.
Setting [5] is: serum-stimulated, serum deprived synchronized cells, read-out: Porcine Smooth Muscle Cell Antiproliferation IC50 or % Inhibition at x Concentration, Serum.
[6] abbreviates: stimulated with human recombinant PDGF-AB, read-out: Porcine Smooth Muscle Cell Antiproliferation IC50 or % Inhibition at x Concentration, PDGF.

Broadly, the viability is a per cent measure of how many cells are alive, often set against a control. In data set [1], `COc1ccc(/C=C/c2nc3ccccc3[nH]2)cc1OC` [Example 1, (E)-2-[2-(3,4-Dimethoxyphenyl)-vinyl]-1H-benzoimidazole] came in with a viability at 24 h of 100%. In addition, the results for the IC50 in data set [2] (setting [3]) and in data set [2] (setting [4]) were 5910 nM and 4100 nM, respectively.
Turning to `COc1ccc(C=Cc2nc3cc(C(=O)c4ccccc4)ccc3[nH]2)cc1OC` [Example 3, {2-[2-(3,4-Dimethoxyphenyl)-vinyl]-1H-benzoinmidazol-5-yl}-phenyl-methanone], the IC50 in data set [2] (setting [5]) was 7600 nM; in data set [2] (setting [6]), 324 to 801 nM.
By melting point is commonly meant the temperature, or range, at which the solid turns liquid. In the case of `COc1ccc(C=Cc2nc3c(OC)c(C)c(C)c(OC)c3[nH]2)cc1OC` [Example 4, 2-[2-(3,4-Dimethoxyphenyl)-vinyl]-4,7-dimethoxy-5,6-dimethyl-1H-benzoimidazole], the melting point lay within 116 to 119 °C. Besides, in data set [1], the viability at 24 h came out at 100%. Besides, the IC50 in data set [2] (setting [3]) stood at 1280 nM. Besides, in data set [2] (setting [4]), the IC50 is 1500 nM.
Regarding `COC(=O)c1ccc(Cn2c(C=Cc3ccc(OC)c(OC)c3)nc3c(OC)c(C)c(C)c(OC)c32)cc1` (hydrate or solvate) [Example 8, 4-{2-[2-(3,4-Dimethoxyphenyl)-vinyl]-4,7-dimethoxy-5,6-dimethyl-benzoimidazol-1-ylmethyl}-benzoic acid methyl ester], the melting point is 111 to 114 °C.
The compound `COc1ccc(/C=C/c2nc3cc(C(=O)O)ccc3[nH]2)cc1OC` [Example 6, (E)-2-[2-(3,4-Dimethoxyphenyl)-vinyl]-1H-benzoimidazole-5-carboxylic acid] came in with a viability at 24 h in data set [1] of 100%. The IC50 in data set [2] (setting [3]) is 2260 nM; in data set [2] (setting [4]), 7490 nM.
In turn, `COc1ccc(/C=C/c2nc3cc([N+](=O)[O-])ccc3[nH]2)cc1OC` [Example 7, (E)-2-[2-(3,4-Dimethoxyphenyl)-vinyl]-5-nitro-1H-benzoimidazole] came in with a melting point of 223 to 225 °C. The compound also had a viability at 24 h in data set [1] of 100%. Further, the IC50 in data set [2] (setting [3]) was in the range of 567 to 1900 nM. The IC50 in data set [2] (setting [4]) came out at 1490 nM.
`COC(=O)c1ccc2[nH]c(/C=C/c3ccc(OC)c(OC)c3)nc2c1` [Example 5, (E)-2-[2-(3,4-Dimethoxyphenyl)-vinyl]-1H-benzoimidazole-5-carboxylic acid methyl ester] showed a melting point of 185 to 188 °C. In data set [1], this compound returned a viability at 24 h of 100%. The IC50 in data set [2] (setting [3]) amounted to 1200 nM. Moreover, the IC50 in data set [2] (setting [4]) is 6120 nM.
Turning to `COC(=O)c1ccc(Cn2c(C=Cc3ccc(OC)c(OC)c3)nc3c(OC)c(C)c(C)c(OC)c32)cc1` [Example 8, 4-{2-[2-(3,4-Dimethoxyphenyl)-vinyl]-4,7-dimethoxy-5,6-dimethyl-benzoimidazol-1-ylmethyl}-benzoic acid methyl ester], in data set [1], the viability at 24 h came out at 80%. Besides, the values for the IC50 in data set [2] (setting [3]) and in data set [2] (setting [4]) were 915 to 10200 nM and 622 nM, respectively.
Regarding `COc1ccc2[nH]c(C=Cc3ccc(OC)c(OC)c3)nc2c1` [Example 2, 2-[2-(3,4-Dimethoxyphenyl)-vinyl]-5-methoxy-1H-benzoimidazole], the viability at 24 h in data set [1] was 100%. In addition, the IC50 came out at 11400 nM in data set [2] (setting [3]) and 3480 nM in data set [2] (setting [4]).
`COc1ccc2[nH]c(C=Cc3ccc(OC)c(OC)c3)nc2c1` (as salt: hydrochloride) (hydrate or solvate) [Example 2, 2-[2-(3,4-Dimethoxyphenyl)-vinyl]-5-methoxy-1H-benzoimidazole]: the melting point was 246 to 249 °C.
`O=[N+]([O-])c1ccc2[nH]c(/C=C/c3ccncc3)nc2c1` [Example 10, (E)-5-Nitro2-(2-pyridin-4-yl-vinyl)-1H-benzoimidazole] had a viability at 24 h in data set [1] of 45%. For the same compound, the IC50 turned out to be 8360 nM in data set [2] (setting [3]) and 620 nM in data set [2] (setting [4]).
Consider `O=[N+]([O-])c1ccc2[nH]c(/C=C/c3ccoc3)nc2c1` [Example 11, (E)-2-(2-Furan-3-yl-vinyl)-5-nitro-1H-benzoimidazole], for which the melting point lay within 230 to 233 °C.
On to `COc1ccc(C=Cc2nc3c([nH]2)C(=O)C(C)=C(C)C3=O)cc1OC` [Example 9, 2-[2-(3,4-Dimethoxyphenyl)-vinyl]-5,6-dimethyl-1-benzoimidazol-4,7-dione], for which the IC50 in data set [2] (setting [5]) stood at 14500 nM; in data set [2] (setting [6]), 858 nM.
